Data: article PMC10641814 (Journal of Medicinal Chemistry, 2023)

Molecular target: T1, 5-HT2CR (Homo sapiens, UniProt P28335)
T1 sequence (P28335 33-458): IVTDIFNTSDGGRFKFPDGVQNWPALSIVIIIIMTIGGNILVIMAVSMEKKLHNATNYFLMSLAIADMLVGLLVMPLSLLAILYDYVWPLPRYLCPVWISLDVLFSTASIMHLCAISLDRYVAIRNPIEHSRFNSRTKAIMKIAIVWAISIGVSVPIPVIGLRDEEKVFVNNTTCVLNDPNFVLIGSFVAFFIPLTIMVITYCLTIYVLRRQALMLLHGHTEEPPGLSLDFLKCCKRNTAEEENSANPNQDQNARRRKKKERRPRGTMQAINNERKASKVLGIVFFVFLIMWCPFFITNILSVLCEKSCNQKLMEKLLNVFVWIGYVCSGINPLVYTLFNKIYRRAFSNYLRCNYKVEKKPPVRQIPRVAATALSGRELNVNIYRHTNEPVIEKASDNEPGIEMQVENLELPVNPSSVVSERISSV
Assay: 5-HT2CR binding ([3H]-mesulergine), Eurofins
Conditions: read-out: serotonin 5-HT2C % inhibition at 1 microM
From the text: The results were expressed as the %
www.eurofinsdiscovery.com.

Cl.Clc1cccc(Cn2ccc3c(N4CCNCC4)nc4ccccc4c32)c1 [PZ-1922, 1-(3-Chlorobenzyl)-4-(piperazin-1-yl)-1H-pyrrolo[3,2-c]quinoline Hydrochloride]
inhibition at 1 µM: 4%
